The structures appear in SMILES notation. Values joined by “and” are separate entries in the source; they are usually repeats but may differ in a detail not shown here. Equal entries are not always repeated.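 Compound exposure: 48 hours, 5 concentrations, 96-well plates. Abbreviation: GI50, concentration required for 50% inhibition of growth. TGI: total growth inhibition.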

Here are results for 9 compounds from PubChem BioAssay (NCI).

Among the test systems are COLO 205 colon; MDA-MB-231 breast; MDA-MB-435; HOP-62 NSCLC; PC-3 prostate; CCRF-CEM leukemia; KM12 colon; SW-620 colon; A549 NSCLC.
Test in all cases: NCI-60 cell line screen, 48 h

For `C[C@@H]1COCCN1c1cc(C2([S@](C)(=N)=O)CC2)nc(-c2ccnc3[nH]ccc23)n1`, the GI50 in the test with COLO 205 colon is 6.18 µM and > 10 µM; in the test with MDA-MB-231 breast, 7.28 µM and 7.53 µM; with MDA-MB-435, 3.74 µM and 4.29 µM; with HOP-62 NSCLC, 2.86 µM and 1.75 µM; with PC-3 prostate, 12.2 µM and > 10 µM; in the test with CCRF-CEM leukemia it was 1.21 µM and 1.11 µM. Moreover, the GI50 in the test with KM12 colon is 4.21 µM and 3.95 µM; in the test on SW-620 colon, 4.79 µM and > 10 µM; with A549 NSCLC it was 3.46 µM and 4.02 µM. Further, the TGI with COLO 205 colon was 43.1 µM and > 10 µM; in the test with MDA-MB-231 breast it was above 100 µM; with MDA-MB-435 it was 35.7 µM and > 10 µM; in the test with HOP-62 NSCLC, 52.1 µM and > 10 µM; in the test on PC-3 prostate, above 100 µM; in the test on CCRF-CEM leukemia, above 29 µM. Also, the TGI in the test with KM12 colon, in the test on SW-620 colon and with A549 NSCLC was above 100 µM throughout.

Regarding `COc1ccc(OC)c(/C=N/NC(=O)Cc2csc3nc(-c4ccc(Br)cc4)cn23)c1`, the GI50 was 35.7 µM in the test on COLO 205 colon; 16.4 µM in the test with MDA-MB-231 breast; 3.96 µM with MDA-MB-435; 13.2 µM in the test on HOP-62 NSCLC; 13.5 µM in the test on PC-3 prostate; 9.59 µM with CCRF-CEM leukemia. Further, the GI50 was 8.84 µM with KM12 colon, 6.44 µM in the test with SW-620 colon and 11.6 µM in the test with A549 NSCLC. Also, the TGI in the test on COLO 205 colon was above 100 µM; in the test with MDA-MB-231 breast, 41.2 µM; with MDA-MB-435 it was 16.2 µM; in the test with HOP-62 NSCLC, 30.3 µM; in the test on PC-3 prostate, 93.8 µM; in the test with CCRF-CEM leukemia it was above 100 µM. Moreover, the TGI in the test with KM12 colon is above 100 µM; with SW-620 colon, 49.1 µM; in the test with A549 NSCLC, 38.7 µM.

Turning to `COC(=O)[C@@]12C(=O)C=CC(=O)[C@@H]1C1C(=CC2COC(C)=O)O[C@@H]2OC3(CCCCC3)O[C@H]12` (stereo not given in full), the TGI worked out at 18.4 µM in the test with COLO 205 colon; 39.9 µM in the test on MDA-MB-231 breast; 29.8 µM in the test on MDA-MB-435; 35 µM in the test with HOP-62 NSCLC; 25.3 µM in the test with PC-3 prostate; 17 µM with CCRF-CEM leukemia. Also, the TGI in the test on KM12 colon stood at 26.5 µM; in the test on SW-620 colon, 12.1 µM; in the test on A549 NSCLC, 22.4 µM.

As for `COc1ccc2oc(=O)cc(C(c3ccc[nH]3)c3ccc[nH]3)c2c1`, the GI50 with COLO 205 colon is 0.221 µM; in the test on MDA-MB-231 breast it was 0.109 µM; with MDA-MB-435 it was 0.208 µM; in the test on HOP-62 NSCLC, 0.107 µM; with PC-3 prostate it was 0.108 µM; with CCRF-CEM leukemia it was 0.105 µM. Also, the GI50 is 0.104 µM in the test with KM12 colon, 0.12 µM in the test on SW-620 colon and 0.118 µM in the test on A549 NSCLC. Moreover, the TGI amounted to 0.549 µM in the test with COLO 205 colon; 6.05 µM in the test with MDA-MB-231 breast; 0.485 µM in the test with MDA-MB-435; 11.7 µM in the test with HOP-62 NSCLC; 15.5 µM with PC-3 prostate; 29.9 µM in the test with CCRF-CEM leukemia. Moreover, the TGI amounted to 11.3 µM in the test with KM12 colon, 16.8 µM in the test on SW-620 colon and 10.8 µM in the test with A549 NSCLC.

`Clc1ccc(CSC(Cn2ccnc2)c2ccc(Cl)cc2Cl)cc1` (stereo not given): the GI50 is 1.5 µM with COLO 205 colon; 1.51 µM in the test with MDA-MB-231 breast; 1.71 µM in the test on MDA-MB-435; 1.41 µM in the test with HOP-62 NSCLC; 1.21 µM in the test on PC-3 prostate; 1.94 µM in the test with CCRF-CEM leukemia. Also, the GI50 with KM12 colon was 1.66 µM; with SW-620 colon, 1.59 µM; with A549 NSCLC, 1.42 µM. Moreover, the TGI in the test on COLO 205 colon worked out at 2.83 µM; in the test on MDA-MB-231 breast, 2.98 µM; in the test with MDA-MB-435 it was 3.33 µM; in the test on HOP-62 NSCLC, 2.73 µM; in the test on PC-3 prostate, 3.61 µM; in the test on CCRF-CEM leukemia it was 5.46 µM. Moreover, the results for the TGI in the test on KM12 colon, with SW-620 colon and in the test on A549 NSCLC were 3.3 µM, 3.1 µM and 3.13 µM, respectively.

As to `Cc1c2cc[n+](C)cc2c(C)c2c1sc1ccccc12`, the TGI with COLO 205 colon came to 7.71 µM; in the test on MDA-MB-231 breast, 11.2 µM; in the test on MDA-MB-435, 6.18 µM; in the test on HOP-62 NSCLC, 1.76 µM; in the test on PC-3 prostate, 13.1 µM; in the test with CCRF-CEM leukemia, 13.8 µM. For the same compound, the TGI in the test with KM12 colon came out at 2.97 µM; in the test on SW-620 colon, 33.1 µM; in the test with A549 NSCLC, 3.46 µM.

`C/C(=N\NC(=O)c1sc(=S)n(C)c1N)c1cc2ccccc2o1`: the GI50 in the test with COLO 205 colon was 17.1 µM; with MDA-MB-231 breast it was 4.86 µM; in the test with MDA-MB-435, 8.65 µM; in the test with HOP-62 NSCLC, 13.3 µM; in the test with PC-3 prostate, 9.73 µM; in the test with CCRF-CEM leukemia it was 10.6 µM. Further, the GI50 in the test with KM12 colon was 9.12 µM; in the test with SW-620 colon, 14.8 µM; in the test on A549 NSCLC it was 7.68 µM. Also, the TGI with COLO 205 colon stood at 50.6 µM; with MDA-MB-231 breast, 16.5 µM; in the test with MDA-MB-435, 32 µM; in the test on HOP-62 NSCLC, 27.2 µM; with PC-3 prostate, 32.7 µM; with CCRF-CEM leukemia, 31 µM. In addition, the TGI in the test with KM12 colon was 25.8 µM; in the test on SW-620 colon, 28.4 µM; in the test with A549 NSCLC, 20.2 µM.

In the case of `CCSCC1CC(O)(c2ccccc2)C(c2ccccc2)C(c2ccc(Cl)cc2)O1` (stereo not given), the GI50 in the test with COLO 205 colon was 1.53 µM; in the test on MDA-MB-231 breast, 1.82 µM; in the test with MDA-MB-435, 1.74 µM; in the test with HOP-62 NSCLC, 1.85 µM; with PC-3 prostate it was 1.48 µM; in the test on CCRF-CEM leukemia, 2.03 µM. The results for the GI50 in the test with KM12 colon, with SW-620 colon and in the test with A549 NSCLC were 2.56 µM, 1.82 µM and 1.61 µM, respectively. Also, the TGI was determined as 2.94 µM in the test on COLO 205 colon; 4.41 µM in the test on MDA-MB-231 breast; 3.84 µM with MDA-MB-435; 3.6 µM in the test on HOP-62 NSCLC; 4.86 µM in the test on PC-3 prostate; 6.5 µM with CCRF-CEM leukemia. Moreover, the results for the TGI in the test with KM12 colon, in the test with SW-620 colon and with A549 NSCLC were 6.92 µM, 4.39 µM and 3.63 µM, respectively.

On to `CC[C@]12CCCN3CCc4c(n(c5ccccc45)C(=O)C1)[C@@H]32`, for which the TGI in the test with COLO 205 colon was above 34 µM; with MDA-MB-231 breast it was above 86.3 µM; in the test on MDA-MB-435, 4.41 µM; in the test with HOP-62 NSCLC, above 100 µM; in the test on PC-3 prostate, above 100 µM; with CCRF-CEM leukemia it was 33.1 µM. Moreover, the TGI in the test on KM12 colon is above 100 µM; with SW-620 colon it was above 65 µM; in the test on A549 NSCLC it was above 100 µM.
